This is an account of results in patent US20190054109A1, “An antiviral composition and a method for application thereof” (ALLA CHEM, LLC, priority 2017, published 2019).

The series can be described thus: physchem. Conditions: simulated gi fluid. How it is done: Evaluation of stability in biological matrix for compositions comprising the prodrug of formula 1.1. Initial compositions comprising the prodrug of formula 1.1 (the tested compounds) were prepared with a concentration of 10 mM in DMSO. From said compositions, 100-fold working solutions were prepared with a concentration of 100 μM in a mixture of acetonitrile: water with a volumetric ratio of 1:1.
The tested composition comprising the prodrug of formula 1.1 in a final concentration of 1 μM was incubated in artificial gastric juice (0.2% NaCl in 0.7% v/v HCl) and artificial intestinal juice (0.05M KH2PO4, pH 6.75). The incubation was performed in a Vortemp56 shaking incubator at 37° C. with stirring at a rate of 300 rev/min. […] The samples were then centrifuged, and the supernatant (150 μl) was sampled for analysis […]. The incubation was performed in two replicates, with each sample measured twice.
Samples were analyzed using an HPLC-MS/MS technique developed for each tested prodrug, wherein the chromatographic system 1290 Infinity II (Agilent Technologies) was combined with the tandem mass spectrometer QTRAP5500 (AB Sciex). When developing conditions for mass-spectrometric detection, the solutions of tested compounds in a mixture of acetonitrile-water (1:1) with a concentration of 100 ng/ml were injected directly into the mass spectrometer using a syringe pump with electrospray ionization carried out in a positive ion mode. Scanning in a total ion current mode (MS1) allowed us to identify a molecular ion for each compound, and basic product ions were recorded in MS2 mode. Then, to attain maximum sensitivity, the MS/MS technique was optimized in MRM mode. In quantitative chromatogram processing, the most intensive MRM transition was used for the analyte and the internal standard. Separation was carried out by means of linear gradient elution chromatography on a YMC Triart C18 column (50×2 mm, 1.9 μm) in a mobile phase consisting of 0.1% formic acid in water and 0.1% formic acid in acetonitrile. Tolbutamide (Fluka) was used as the internal standard.
Half-life (T1/2) was found from the kinetics of tested prodrug elimination in an antiviral composition during incubation in a biological matrix. The computations were based on the values of chromatographic peak areas for compounds in test samples normalized to the internal standard signal. From linear dependence of log normalized areas of chromatographic peaks on time, the constant of elimination rate was calculated (k is linear section slope).

For orientation: half-life means how long it takes for the measured level to halve. Lower therefore signals fast loss.

Where only a bound is given, the exact number is not on record here.

`C[C@H](N[P@](=O)(OC[C@H]1O[C@@H](n2ccc(=O)[nH]c2=O)[C@](C)(F)[C@@H]1O)Oc1ccccc1)C(=O)OC1CCC1` [Prodrug 1.1, cyclobutyl (S)-2-{(S)-[(2R,3R,4R,5R)-5-(3,4-dihydro-2,4-dioxo-2H-pyrimidin-1-yl)-3-hydroxy-4-methyl-4-fluoro-tetrahydro-furan-2-ylmethoxy]-phenoxy-phosphorylamino}-propanoate] yielded a half-life at 1 μM (T1/2 SGF, artificial gastric juice, 37° C.) of 12.7 to 15 h and a half-life at 1 μM (pH 6.75) of over 24 h.
